Measured values from patent US9084424B2, “N-benzyl heterocyclic carboxamides” (BAYER INTELLECTUAL PROPERTY GMBH, priority 2010, dated 2015).

Legend:
[1] = log P by HPLC on reversed-phase column (EEC Directive 79/831 Annex V.A8); type: physicochemical; conditions: HPLC on reversed-phase column (C 18), 40° C., 0.1% aqueous formic acid and acetonitrile, linear gradient 10% to 90% acetonitrile
Method in brief: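 Gradient elution (10% to 90% acetonitrile, 0.1% aqueous formic acid) at 40° C; log P interpolated linearly between flanking alkan-2-one standards (3 to 16 carbons).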

Leptosphaeria nodorum = test: In vivo preventive test on Leptosphaeria nodorum (wheat); conditions: preventive spray, 500 ppm of active ingredient, evaluated 7-9 days after inoculation
Description: In Vivo Preventive Test on Leptosphaeria nodorum (Wheat)
(§1) Solvent: 49 parts by weight of N,N-dimethylacetamide
(§2) Emulsifier: 1 part by weight of alkylaryl polyglycol ether
To produce a suitable preparation of active compound, 1 part by weight of active compound is mixed with the stated amounts of solvent and emulsifier, and the concentrate is diluted with water to the desired concentration.
To test for preventive activity, young plants are sprayed with a preparation of active compound at the stated rate of application. One day after this treatment, the plants are inoculated with an aqueous spore suspension of Leptosphaeria nodorum. The plants remain for 48 hours in an incubation cabinet at 22° C. and a relative atmospheric humidity of 100%. Then the plants are placed in a greenhouse at a temperature of approximately 22° C. and a relative atmospheric humidity of approximately 90%.
The test is evaluated 7-9 days after the inoculation. 0% means an efficacy which corresponds to that of the untreated control, while an efficacy of 100% means that no disease is observed.
Under these conditions, good (at least 70%) to excellent protection (at least 95%) is observed at a dose of 500 ppm of active ingredient with the following compounds from table D: […]

[2] = tested on: Blumeria graminis f.sp. hordei; test: In vivo preventive test on Blumeria graminis (barley); conditions: preventive spray, 500 ppm of active ingredient, evaluated 7 days after inoculation
Description: In Vivo Preventive Test on Blumeria graminis (Barley)
as §1, §2
(§3) To produce a suitable preparation of active compound, 1 part by weight of active compound or active compound combination is mixed with the stated amounts of solvent and emulsifier, and the concentrate is diluted with water to the desired concentration.
(§4) To test for preventive activity, young plants are sprayed with the preparation of active compound or active compound combination at the stated rate of application.
After the spray coating has been dried, the plants are dusted with spores of Blumeria graminis f.sp. hordei.
The plants are placed in the greenhouse at a temperature of approximately 18° C. and a relative atmospheric humidity of approximately 80% to promote the development of mildew pustules.
The test is evaluated 7 days after the inoculation. 0% means an efficacy which corresponds to that of the untreated control, while an efficacy of 100% means that no disease is observed.

Alternaria solani = test: In vivo preventive test on Alternaria solani (tomato); conditions: preventive spray, 500 ppm of active ingredient, evaluated 7 days after inoculation
Method in brief: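 Young tomato plants sprayed with compound formulated in DMF with alkylarylpolyglycolether emulsifier and diluted in water, then inoculated one day later with A. solani spore suspension. Kept 1 day at about 22 °C, 100% humidity, then about 20 °C, 96% humidity. Efficacy scored 7 days post-inoculation, 0% = untreated control, 100% = no disease.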

Puccinia triticina = test: In vivo preventive test on Puccinia triticina (wheat); conditions: preventive spray, 500 ppm of active ingredient, evaluated 8 days after inoculation
Description: In Vivo Preventive Test on Puccinia triticina (Wheat)
as §1, §2, §3, §4
After the spray coating has been dried, the plants are sprayed with a spore suspension of Puccinia triticina. The plants remain for 48 hours in an incubation cabinet at approximately 20° C. and a relative atmospheric humidity of approximately 100%.
The plants are placed in the greenhouse at a temperature of approximately 20° C. and a relative atmospheric humidity of approximately 80%.
The test is evaluated 8 days after the inoculation. 0% means an efficacy which corresponds to that of the untreated control, while an efficacy of 100% means that no disease is observed.

Pyrenophora teres = test: In vivo preventive test on Pyrenophora teres (barley); conditions: preventive spray, 500 ppm of active ingredient, evaluated 7-9 days after inoculation
Method in brief: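 Young barley plants were sprayed with compound formulated in N,N-dimethylacetamide/emulsifier and diluted with water, then inoculated with P. teres spores one day later. After 48 h at 22° C., 100% humidity, plants stood in a greenhouse (~20° C., ~80% humidity); efficacy versus untreated control was scored 7-9 days post-inoculation.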

Septoria tritici = test: In vivo preventive test on Septoria tritici (wheat); conditions: preventive spray, 500 ppm of active ingredient, evaluated 21 days after inoculation
Description: In Vivo Preventive Test on Septoria tritici (Wheat)
as §1, §2, §3, §4
After the spray coating has been dried, the plants are sprayed with a spore suspension of Septoria tritici. The plants remain for 48 hours in an incubation cabinet at approximately 20° C. and a relative atmospheric humidity of approximately 100% and afterwards for 60 hours at approximately 15° C. in a translucent incubation cabinet at a relative atmospheric humidity of approximately 100%.
The plants are placed in the greenhouse at a temperature of approximately 15° C. and a relative atmospheric humidity of approximately 80%.
The test is evaluated 21 days after the inoculation. 0% means an efficacy which corresponds to that of the untreated control, while an efficacy of 100% means that no disease is observed.

CC(c1ncc(Cl)cc1Cl)N(C)C(=O)c1c(C(F)F)nn(C)c1F (stereo not shown) [Example 185]
logP [1]: 2.92
Efficacy (Leptosphaeria nodorum): 95%
Efficacy [2]: 100%
Efficacy (Alternaria solani): 100%
Efficacy (Puccinia triticina): 90%
Efficacy (Pyrenophora teres): 95%
Efficacy (Septoria tritici): 100%
